Data reported in US20260102340A1, “Therapeutic Formulation” (1000739373 Ontario Ltd., priority 2022, published 2026).
In brackets after ≈: the same amount, converted by molar mass. Several values for one entry are separate records, joined by “and”; a condition that tells them apart may be missing. Equal entries are not always repeated. Where two headings read alike, the source gives them in different places.

Legend:
[1] = 4.5 months
Source text: A plurality of metered dose inhalers (MDIs) were filled with either the first or second therapeutic formulation. MDIs were stored either upright (Up) or inverted (in). Each MDI comprised a valve and a canister.

[2] = HFA 134a
[3] = physchem; conditions: organic solvent or mixture, Mean Drug Solubility (± standard deviation)
[4] = physchem; conditions: organic solvent or mixture
[5] = HFA 134a, Metering Valve 1908, 25° C., Up
[6] = HFA 134a, Metering Valve 1908, 40° C. (75% RH), Down
[7] = HFA 134a, Metering Valve 1908, 40° C. (75% RH), Up
[8] = HFA 134a, Metering Valve 1908, Presspart Plasma Coated 14 ml C128, 5° C., Up
[9] = HFA 134a, Metering valve 1904 (with dip tube 1906), 5° C., Up
[10] = HFA 134a, Metering valve 1904 (with dip tube 1906), 40° C. (75% RH), Down
[11] = HFA 134a, Metering valve 1904 (with dip tube 1906), 40° C. (75% RH), Up
[12] = HFA 152a, Metering Valve 1908, 5° C., Up
[13] = HFA 152a, Metering Valve 1908, 25° C., Up
[14] = HFA 152a, Metering Valve 1908, 40° C. (75% RH), Down
[15] = HFA 152a, Metering Valve 1908, 40° C. (75% RH), Up
[16] = HFA 152a, Metering valve 1904 (with dip tube 1906), 40° C. (75% RH), orientation not given
[17] = 0 %(w/w) ethanol, nicotine added 0.169 ± 0.009 %(w/w)
[18] = 14.8 %(w/w) ethanol, nicotine added 0.703 %(w/w)

With `CN1CCC[C@H]1c1cccnc1` [Nicotine, L-Nicotine] the “Nicotine % of 5° C.” value [1, 5] was 98 % of 5 °C, the Nicotine can content [1, 5] was 23922.695 µg and 23527.533 µg and the “Nicotine % of 5° C.” value [1, 6] was 98 % of 5 °C. For the same molecule, the Nicotine can content [1, 6] was 23663.281 µg, the “Nicotine % of 5° C.” value [1, 7] was 97 % of 5 °C and the Nicotine can content [1, 7] was 22809.747 µg and 23785.869 µg. The “Nicotine % of 5° C.” value [1, 8] was 100 % of 5 °C, the Nicotine can content [1, 8] was 24166.562 µg and 24126.474 µg and the “Nicotine % of 5° C.” value [1, 9] was 100 % of 5 °C. For the same molecule, the Nicotine can content [1, 9] was 23891.217 µg and 23628.856 µg, the “Nicotine % of 5° C.” value [1, 10] was 97 % of 5 °C and the Nicotine can content [1, 10] was 23102.878 µg and 23079.598 µg. For the same molecule, the “Nicotine % of 5° C.” value [1, 11] was 96 % of 5 °C, the Nicotine can content [1, 11] was 22360.125 µg and 23044.004 µg and the “Nicotine % of 5° C.” value [1, 12] was 100 % of 5 °C. The Nicotine can content [1, 12] was 31626.434 µg and 30855.835 µg, the “Nicotine % of 5° C.” value [1, 13] was 100 % of 5 °C and the Nicotine can content [1, 13] was 31592.559 µg and 30786.35 µg. The “Nicotine % of 5° C.” value [1, 14] was 98 % of 5 °C, the Nicotine can content [1, 14] was 30939.368 µg and 30153.5 µg and the “Nicotine % of 5° C.” value [1, 15] was 98 % of 5 °C. For the same molecule, the Nicotine can content [1, 15] was 30982.764 µg and 30318.689 µg, the “Nicotine % of 5° C.” value [1, 16] was 97 % of 5 °C and the Nicotine can content [1, 16] was 30395.997 µg and 30048.645 µg. The “Solubility in 50:50 mixtures of propellants compared with single propellants” value (50:50 mixtures of propellants) was “higher solubility than either propellant alone”, the “Solubility, equivalent % by mass” value (HFA 152a) was 0.56 % by mass and the “Effect of addition of ethanol on solubility” value [2] was “greatly improved”. The “Detected/Added *100%” value [2, 17] was 99 ± 11%, the “Nicotine Detected in Solution (by HPLC) % (w/w)” value [2, 17] was 0.168 ± 0.026 % (w/w) and the “Nicotine Detected in Solution (by HPLC) μg per 50 μl” value [2, 17] was 104 ± 15 μg per 50 μl. For the same molecule, the “Detected/Added *100%” value [2, 18] was 108 ± 2%, the “Nicotine Detected in Solution (by HPLC) % (w/w)” value [2, 18] was 0.760 ± 0.013 % (w/w) and the “Nicotine Detected in Solution (by HPLC) μg per 50 μl” value [2, 18] was 421 ± 10 μg per 50 μl. For the same molecule, the solubility ([3]; 50:50 HFA 134a/HFA 152a) was 85.8 ± 3.2 µg/mL (≈ 529 µM), the solubility ([3]; 50:50 HFA 134a/HFO 1234ze) was 62.3 ± 4.4 µg/mL (≈ 384 µM) and the solubility ([3]; HFA 134a) was 38.5 ± 1.6 µg/mL (≈ 237 µM). It also gave a solubility ([3]; HFA 152a) of 50.8 ± 2.9 µg/mL (≈ 313 µM), a solubility ([3]; HFA 227ea) of 19.8 ± 4.9 µg/mL (≈ 122 µM) and a solubility ([3]; HFO 1234ze) of 41.5 ± 0.8 µg/mL (≈ 256 µM). The solubility [4] was no less than 10 µg/mL.
